In patent publication US11970448B2, “Monomers capable of dimerizing in an aqueous solution, and methods of using same” (CORNELL UNIVERSITY, priority 2011, dated 2024):
Read-outs that look alike come from different tables or passages of the source.

Molecular target: T1, recominbant human tryptase, beta, from lung (Homo sapiens, UniProt P20231)
T1 construct: purchased Promega or Enzo Life Sciences G5631 or BML-SE418
Experiment: Inhibition of tryptase activity by monomers and multimers (Boc-Gln-Ala-Arg-AMC fluorescence)
Format: biochemical
Conditions: monomers against tryptase
Protocol: Stock solutions of recominbant human tryptase, beta, from lung (Promega: catalog number G5631, or Enzo Life Sciences: catalog number BML-SE418) were made at 30 μM, in solution with 5 μM heparin sulfate and 1 M NaCl. Monomer tryptase inhibitor stock solutions were made at 50 mM in DMSO. Test substance plates were made at 1.2× the final concentration in assay buffer (50 mM HEPES, 150 mM NaCl, 100 μM EDTA, pH 7.4, 0.02% Tween-20). A final concentration of 1 nM tryptase was used. When required, test substances were diluted in water immediately before use in 10-fold serial dilutions. After the indicated incubation time, the test subtance-tryptase solution at 1.2× concentration, was diluted into assay buffer containing a final concentration of 200 μM N-tert-butoxycarbonyl-Gln-Ala-Arg-AMC HBr [AMC=7-amino-4-methylcoumarin] (Boc-Gln-Ala-Arg-AMC; Enzo Life Sciences: catalog number BML-P237) to a final volume of 50 μl in black opaque round bottom 96 well plates (Corning, catalog number 3792). The release of fluorescent AMC was immediately measured every 30 seconds over 15-30 minutes at an excitation wavelength of 367 nm, monitoring emission at 468 nm on a Spectramax M5 (Molecular Devices) microplate reader. The Softmax Pro (Molecular Devices) and Graphpad prism software were used to determine Vmax, and concentration-response curve IC50s, respectively.

[1] = Table 5, read-out: Monomer IC50 range
[2] = read-out: IC50 range group of additional monomers (boronic acid, benzooxaborole, ligands)

T1 sequence (P20231 31-275): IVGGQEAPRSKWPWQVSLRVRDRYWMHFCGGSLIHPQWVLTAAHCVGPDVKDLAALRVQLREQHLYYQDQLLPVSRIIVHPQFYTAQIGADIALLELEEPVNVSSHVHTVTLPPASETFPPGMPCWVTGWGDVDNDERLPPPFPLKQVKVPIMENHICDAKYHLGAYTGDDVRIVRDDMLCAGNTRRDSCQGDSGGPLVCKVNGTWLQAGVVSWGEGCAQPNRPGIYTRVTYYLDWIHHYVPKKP

Compound	IC50 [1] [nM]	IC50 [2] [nM]
NCc1cccc(C2CCN(C(=O)c3cccc(C(=O)N4C[C@@H](O)[C@@H](O)C4)c3)CC2)c1 [T26diol trans, (4-(3-(aminomethyl)phenyl)piperidin-1-yl)(3-((3S,4R)-3,4-dihydroxypyrrolidine-1-carbonyl)phenyl)methanone]	1000 to 10000	1000 to 10000
NCc1ccc(F)c(C2CCN(C(=O)c3cccc4cc(O)c(O)cc34)CC2)c1 [T27F, (4-(5-(aminomethyl)-2-fluorophenyl)piperidin-1-yl)(6,7-dihydroxynaphthalen-1-yl)methanone]	1000 to 10000	1000 to 10000
NCc1cccc(C2CCN(C(=O)c3cccc(O)c3O)CC2)c1 [T28, (4-(3-(aminomethyl)phenyl)piperidin-1-yl)(2,3-dihydroxyphenyl)methanone]	1000 to 10000	1000 to 10000
NCc1cccc(C2CCN(C(=O)c3cccc(OCC(=O)N4C[C@@H](O)[C@@H](O)C4)c3)CC2)c1 [T29, 2-(3-(4-(3-(aminomethyl)phenyl)piperidine-1-carbonyl)phenoxy)-1-((3S,4R)-3,4-dihydroxypyrrolidin-1-yl)ethanone]	1000 to 10000	–
NCc1cccc(C2CCN(C(=O)c3ccc(OCC(=O)N4C[C@@H](O)[C@@H](O)C4)cc3)CC2)c1 [T30, 2-(4-(4-(3-(aminomethyl)phenyl)piperidine-1-carbonyl)phenoxy)-1-((3S,4R)-3,4-dihydroxypyrrolidin-1-yl)ethanone]	1000 to 10000	1000 to 10000
NCc1cccc(C2CCN(C(=O)c3cc4cc(O)ccc4[nH]3)CC2)c1 [T31A, (4-(3-(aminomethyl)phenyl)piperidin-1-yl)(5-hydroxy-1H-indol-2-yl)methanone]	0.1 to 1000	–
NCc1cccc(C2CCN(C(=O)c3cc4c(B(O)O)cccc4[nH]3)CC2)c1 [T32, 2-(4-(3-(aminomethyl)phenyl)piperidine-1-carbonyl)-1H-indol-4-ylboronic acid]	1000 to 10000	1000 to 10000
NCc1cccc(C2CCN(C(=O)/C=C/c3ccc(B(O)O)cc3)CC2)c1 [T33, (E)-4-(3-(4-(3-(aminomethyl)phenyl)piperidin-1-yl)-3-oxoprop-1-enyl)phenylboronic acid]	1000 to 10000	1000 to 10000
N=C(N)c1ccc2c(c1)C1(CCN(C(=O)/C=C/c3ccc(B(O)O)cc3)CC1)CO2 [T33SPAM, (E)-4-(3-(5-carbamimidoyl-2H-spiro[benzofuran-3,4′-piperidine]-1′-yl)-3-oxoprop-1-enyl)phenylboronic acid]	–	1000 to 10000
NCc1cccc(C2CCN(C(=O)/C=C/c3cccc(B(O)O)c3)CC2)c1 [T34, (E)-3-(3-(4-(3-(aminomethyl)phenyl)piperidin-1-yl)-3-oxoprop-1-enyl)phenylboronic acid]	1000 to 10000	1000 to 10000
NCc1cccc(C2CCN(C(=O)c3cccc(-c4cccc(B(O)O)c4)c3)CC2)c1 [T35, 3′-(4-(3-(aminomethyl)phenyl)piperidine-1-carbonyl)biphenyl-3-ylboronic acid]	0.1 to 1000	0.1 to 1000
NCc1ccc(F)c(C2CCN(C(=O)c3cccc(-c4cccc(B(O)O)c4)c3)CC2)c1 [T35F, 3′-(4-(5-(aminomethyl)-2-fluorophenyl)piperidine-1-carbonyl)biphenyl-3-ylboronic acid]	0.1 to 1000	0.1 to 1000
N=C(N)c1ccc2c(c1)C1(CCN(C(=O)c3cccc(-c4cccc(B(O)O)c4)c3)CC1)CO2 [T35SPAM, 3′-(5-carbamimidoyl-2H-spiro[benzofuran-3,4′-piperidine]-1′-ylcarbonyl)biphenyl-3-ylboronic acid]	–	0.1 to 1000
NCc1ccc2c(c1)C1(CCN(C(=O)c3cccc(-c4cccc(B(O)O)c4)c3)CC1)CO2 [T35SPIRO, 3′-(5-(aminomethyl)-2H-spiro[benzofuran-3,4′-piperidine]-1′-ylcarbonyl)biphenyl-3-ylboronic acid]	1000 to 10000	1000 to 10000
NCc1cccc(C2CCN(C(=O)c3ccc(-c4ccc5c(c4)COB5O)cc3)CC2)c1 [T36, (4-(3-(aminomethyl)phenyl)piperidin-1-yl)(4-(1-hydroxy-1,3-dihydrobenzo[c][1,2]oxaborol-5-yl)phenyl)methanone]	1000 to 10000	1000 to 10000
NCc1cccc(C2CCN(C(=O)c3cccc(-c4ccc5c(c4)COB5O)c3)CC2)c1 [T36M, (4-(3-(aminomethyl)phenyl)piperidin-1-yl)(3-(1-hydroxy-1,3-dihydrobenzo[c][1,2]oxaborol-5-yl)phenyl)methanone]	0.1 to 1000	0.1 to 1000
NCc1cccc(C2CCN(C(=O)c3cccc4sc(B(O)O)cc34)CC2)c1 [T37, 4-(4-(3-(aminomethyl)phenyl)piperidine-1-carbonyl)benzo[b]thiophen-2-ylboronic acid]	1000 to 10000	1000 to 10000
NCc1cccc(C2CCN(C(=O)c3cccc4sc(Br)cc34)CC2)c1 [T37A, (4-(3-(aminomethyl)phenyl)piperidin-1-yl)(2-bromobenzo[b]thiophen-4-yl)methanone]	1000 to 10000	–
NCc1cccc(C2CCN(C(=O)/C=C/c3ccc(O)c(CO)c3)CC2)c1 [T40, (E)-1-(4-(3-(aminomethyl)phenyl)piperidin-1-yl)-3-(4-hydroxy-3-(hydroxymethyl)phenyl)prop-2-en-1-one]	1000 to 10000	1000 to 10000
NCc1cccc(C2CCN(C(=O)/C=C/c3ccc(CO)c(O)c3)CC2)c1 [T41, (E)-1-(4-(3-(aminomethyl)phenyl)piperidin-1-yl)-3-(3-hydroxy-4-(hydroxymethyl)phenyl)prop-2-en-1-one]	0.1 to 1000	0.1 to 1000
NCc1cccc(C2CCN(C(=O)/C=C/c3ccc(C4CC4)c(O)c3)CC2)c1 [T41CYCLO, (E)-1-(4-(3-(aminomethyl)phenyl)piperidin-1-yl)-3-(4-cyclopropyl-3-hydroxyphenyl)prop-2-en-1-one]	0.1 to 1000	–
CC(C)(O)c1ccc(/C=C/C(=O)N2CCC(c3cccc(CN)c3)CC2)cc1O [T41GEM, (E)-1-(4-(3-(aminomethyl)phenyl)piperidin-1-yl)-3-(3-hydroxy-4-(2-hydroxypropan-2-yl)phenyl)prop-2-en-1-one]	0.1 to 1000	0.1 to 1000
NCc1cccc(C2CCN(C(=O)/C=C/c3cccc(O)c3CO)CC2)c1 [T42]	1000 to 10000	1000 to 10000
NCc1cccc(C2CCN(C(=O)/C=C/c3cc(O)c(O)c(O)c3)CC2)c1 [T43, (E)-1-(4-(3-(aminomethyl)phenyl)piperidin-1-yl)-3-(3,4,5-trihydroxyphenyl)prop-2-en-1-one]	0.1 to 1000	0.1 to 1000
NCc1cccc(C2CCN(C(=O)c3cccc4cc(CO)c(O)cc34)CC2)c1 [T44, (4-(3-(aminomethyl)phenyl)piperidin-1-yl)(7-hydroxy-6-(hydroxymethyl)naphthalen-1-yl)methanone]	1000 to 10000	1000 to 10000
NCc1cccc(C2CCN(C(=O)c3ccc(B(O)O)c4cccnc34)CC2)c1 [T51]	–	10000 to 65000
NCc1cccc(C2CCN(C(=O)c3cccc(OCCC(=O)N4C[C@@H](O)[C@@H](O)C4)c3)CC2)c1 [T53, 3-(3-(4-(3-(aminomethyl)phenyl)piperidine-1-carbonyl)phenoxy)-1-((3S,4R)-3,4-dihydroxypyrrolidin-1-yl)propan-1-one]	0.1 to 1000	0.1 to 1000
NCc1cccc(C2CCN(C(=O)c3cccc(O)c3)CC2)c1 [T53B, (4-(3-(aminomethyl)phenyl)piperidin-1-yl)(3-hydroxyphenyl)methanone]	1000 to 10000	–
